Legend:
Experiment in all cases: Fractional growth, 72 h seliciclib
Assay type in all cases: cell-based, human
JHU-028 = JHU-028 (Head & Neck), 15 μM seliciclib
From the text: (§1) A total of 270 human cancer cell lines from diverse cancer histopathologic types were investigated.

HT 1080 = HT 1080 (Miscellaneous), 15 μM seliciclib
From the text: as §1

BFTC-905 = BFTC-905 (Bladder), 15 μM seliciclib
From the text: as §1

Daoy = Daoy (Brain), 15 μM seliciclib
From the text: as §1

8505C = 8505C (Thyroid), 15 μM seliciclib
From the text: as §1

HuH-7 = HuH-7 (Liver), 15 μM seliciclib
From the text: as §1

UM-UC-3 = UM-UC-3 (Bladder), 15 μM seliciclib
From the text: as §1

EBC-1 = EBC-1 (Lung: NSCLC), 15 μM seliciclib
From the text: as §1

MEL-JUSO = MEL-JUSO (Skin), 15 μM seliciclib
From the text: as §1

786-O = 786-O (Kidney), 15 μM seliciclib
From the text: as §1

BxPC-3 = BxPC-3 (Pancreas), 15 μM seliciclib
From the text: as §1

KP-3L = KP-3L (Pancreas), 15 μM seliciclib
From the text: as §1

LUDLU-1 = LUDLU-1 (Lung: NSCLC), 15 μM seliciclib
From the text: as §1

RVH-421 = RVH-421 (Skin), 15 μM seliciclib
From the text: as §1

HCC-366 = HCC-366 (Lung: NSCLC), 15 μM seliciclib
From the text: as §1

NCI-H1581 = NCI-H1581 (Lung: NSCLC), 15 μM seliciclib
From the text: as §1

CaR-1 = CaR-1 (Intestine), 15 μM seliciclib
From the text: as §1

HMCB = HMCB (Skin), 15 μM seliciclib
From the text: as §1

SCCH-196 = SCCH-196 (Miscellaneous), 15 μM seliciclib
From the text: as §1

C-4 I = C-4 I (Cervix), 15 μM seliciclib
From the text: as §1

NCI-H1435 = NCI-H1435 (Lung: NSCLC), 15 μM seliciclib
From the text: as §1

CHSA8926 = CHSA8926 (Bone), 15 μM seliciclib
From the text: as §1

LU99C = LU99C (Lung: NSCLC), 15 μM seliciclib
From the text: as §1

NCI-H522 = NCI-H522 (Lung: NSCLC), 15 μM seliciclib
From the text: as §1

OE21 = OE21 (Esophagus), 15 μM seliciclib
From the text: as §1

NCI-H2030 = NCI-H2030 (Lung: NSCLC), 15 μM seliciclib
From the text: as §1

NCI-H1944 = NCI-H1944 (Lung: NSCLC), 15 μM seliciclib
From the text: as §1

22RV1 = 22RV1 (Prostate), 15 μM seliciclib
From the text: as §1

COLO 320DM = COLO 320DM (Intestine), 15 μM seliciclib
From the text: as §1

IGROV-1 = IGROV-1 (Ovary), 15 μM seliciclib
From the text: as §1

LU99B = LU99B (Lung: NSCLC), 15 μM seliciclib
From the text: as §1

PCI-30 = PCI-30 (Head & Neck), 15 μM seliciclib
From the text: as §1

CAL-29 = CAL-29 (Bladder), 15 μM seliciclib
From the text: as §1

Panc 08.13 = Panc 08.13 (Pancreas), 15 μM seliciclib
From the text: as §1

G-402 = G-402 (Kidney), 15 μM seliciclib
From the text: as §1

PL4 = PL4 (Pancreas), 15 μM seliciclib
From the text: as §1

NCI-H1781 = NCI-H1781 (Lung: NSCLC), 15 μM seliciclib
From the text: as §1

Structure (SMILES): CC[C@H](CO)Nc1nc(NCc2ccccc2)c2ncn(C(C)C)c2n1 [seliciclib, roscovitine]
- Fractional Growth (JHU-028): 0.5325
- Fractional Growth (HT 1080): 0.2044
- Fractional Growth (BFTC-905): 0.4198
- Fractional Growth (Daoy): 0.6209
- Fractional Growth (8505C): 0.4214
- Fractional Growth (HuH-7): 0.3911
- Fractional Growth (UM-UC-3): 0.3538
- Fractional Growth (EBC-1): 0.3971
- Fractional Growth (MEL-JUSO): 0.4945
- Fractional Growth (786-O): 0.3998
- Fractional Growth (BxPC-3): 0.671
- Fractional Growth (KP-3L): 0.4338
- Fractional Growth (LUDLU-1): 0.7029
- Fractional Growth (RVH-421): 0.4165
- Fractional Growth (HCC-366): 0.2561
- Fractional Growth (NCI-H1581): 0.7659
- Fractional Growth (CaR-1): 0.5795
- Fractional Growth (HMCB): 0.161
- Fractional Growth (SCCH-196): 0.6177
- Fractional Growth (C-4 I): 0.5067
- Fractional Growth (NCI-H1435): 0.6379
- Fractional Growth (CHSA8926): 0.674
- Fractional Growth (LU99C): 0.3864
- Fractional Growth (NCI-H522): 0.6262
- Fractional Growth (OE21): 0.4083
- Fractional Growth (NCI-H2030): 0.3063
- Fractional Growth (NCI-H1944): 0.6921
- Fractional Growth (22RV1): 0.7432
- Fractional Growth (COLO 320DM): 0.3188
- Fractional Growth (IGROV-1): 0.4776
- Fractional Growth (LU99B): 0.2318
- Fractional Growth (PCI-30): 0.5541
- Fractional Growth (CAL-29): 0.5744
- Fractional Growth (Panc 08.13): 0.4222
- Fractional Growth (G-402): 0.2708
- Fractional Growth (PL4): 0.057
- Fractional Growth (NCI-H1781): 0.6273

Reference: patent US20130005747A1, “METHOD FOR SELECTING A CANCER THERAPY” (Cyclacel Limited, priority 2010, published 2013)
